Measurements taken from BindingDB's records for doi:10.1016/j.chembiol.2013.08.005 (University of California San Francisco, 2013).

Tests used:
Urea transporter 2 = biological target: T1, Urea transporter 2 (Rattus norvegicus, UniProt Q62668); assay: UT-A1 Inhibition Assay
T1 sequence (Q62668 whole entry): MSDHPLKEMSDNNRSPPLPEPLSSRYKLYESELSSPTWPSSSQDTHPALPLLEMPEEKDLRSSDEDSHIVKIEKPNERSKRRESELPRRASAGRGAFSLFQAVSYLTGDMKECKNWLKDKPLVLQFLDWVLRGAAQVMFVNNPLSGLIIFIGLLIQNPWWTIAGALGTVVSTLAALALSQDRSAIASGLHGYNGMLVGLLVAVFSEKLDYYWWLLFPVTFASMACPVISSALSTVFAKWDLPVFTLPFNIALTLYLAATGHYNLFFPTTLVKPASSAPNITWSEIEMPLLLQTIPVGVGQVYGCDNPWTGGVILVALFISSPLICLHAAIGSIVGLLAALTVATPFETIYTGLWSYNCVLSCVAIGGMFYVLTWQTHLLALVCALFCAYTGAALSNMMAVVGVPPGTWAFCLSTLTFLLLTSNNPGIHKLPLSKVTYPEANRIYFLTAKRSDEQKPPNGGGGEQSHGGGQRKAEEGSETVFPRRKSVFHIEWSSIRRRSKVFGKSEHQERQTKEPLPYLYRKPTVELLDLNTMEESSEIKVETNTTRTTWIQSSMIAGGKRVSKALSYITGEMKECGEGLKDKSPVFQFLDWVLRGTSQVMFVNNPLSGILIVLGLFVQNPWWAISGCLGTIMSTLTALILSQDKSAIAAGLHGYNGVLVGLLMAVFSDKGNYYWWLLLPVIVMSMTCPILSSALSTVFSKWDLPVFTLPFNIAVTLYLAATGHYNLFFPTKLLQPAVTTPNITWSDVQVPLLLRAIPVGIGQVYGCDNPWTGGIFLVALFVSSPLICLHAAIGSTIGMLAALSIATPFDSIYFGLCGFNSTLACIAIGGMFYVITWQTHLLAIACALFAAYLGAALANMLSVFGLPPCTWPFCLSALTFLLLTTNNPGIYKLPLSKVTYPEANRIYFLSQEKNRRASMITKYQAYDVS
Description: The urea concentration dependence of UT-A1 inhibition was studied from inhibitor concentration response data (0.3 - 60 µM) using different of urea gradients (200 - 1,600 mM). The kinetics of UT-A1 inhibition was measured by adding inhibitors (3 µM) at different times prior to assay.

Urea transporter 1 = biological target: T2, Urea transporter 1 (Rattus norvegicus, UniProt P97689); assay: UT-B Inhibition Assay
T2 sequence (P97689 whole entry): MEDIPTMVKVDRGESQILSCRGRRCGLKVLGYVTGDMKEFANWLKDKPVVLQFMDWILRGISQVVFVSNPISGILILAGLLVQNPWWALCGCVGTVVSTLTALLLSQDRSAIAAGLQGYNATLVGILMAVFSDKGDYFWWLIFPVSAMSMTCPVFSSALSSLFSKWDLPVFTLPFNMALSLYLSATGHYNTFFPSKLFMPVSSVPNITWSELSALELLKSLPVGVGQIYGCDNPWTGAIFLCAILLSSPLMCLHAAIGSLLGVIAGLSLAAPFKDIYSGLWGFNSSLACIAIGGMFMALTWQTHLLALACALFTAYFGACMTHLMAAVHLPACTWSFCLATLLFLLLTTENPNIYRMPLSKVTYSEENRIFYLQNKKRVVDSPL
Description: Erythrocyte suspension (100 µL) was added to each well of a 96-well microplate to which test compounds were added. After 15 min incubation, 20 µL of the erythrocyte suspension was added to each well of a 96-well plate containing 180 µL PBS containing 1% DMSO, followed by vigorous mixing. The absorbance was measured at 710 nm.

Row | Structure (SMILES) | IC50 (Urea transporter 2) [µM] | IC50 (Urea transporter 1) [µM]
1 | CSc1nc(Nc2ccc(Nc3ccccc3)cc2)nc(SC)n1 [1‐N‐[bis(methylsulfanyl)‐1,3,5‐triazin‐2‐yl]‐4‐N‐ phenylbenzene‐1,4‐diamine] | 45 | > 50
2 | COc1cccc(CNC(=O)c2ccc3cccc(O)c3n2)c1 [8‐hydroxy‐N‐[(3‐methoxyphenyl)methyl]quinoline‐2‐carboxamide] | – | > 50
3 | COc1ccc(Nc2cc(C(=O)N3CCSCC3)nc3c(OC)cccc23)cc1 [8‐methoxy‐N‐(4‐methoxyphenyl)‐2‐(thiomorpholine‐4‐ carbonyl)quinolin‐4‐amine] | 3.5 | 6.2
4 | COc1cccc(/C=C2/SC(=N)NC2=O)c1O [(5E)‐5‐[(2‐hydroxy‐3‐methoxyphenyl)methylidene]‐2‐ imino‐1,3‐thiazolidin‐4‐one] | 4.6 | 6.3
5 | COc1cc(/C=C2/SC(=N)NC2=O)ccc1O [(5E)‐5‐[(4‐hydroxy‐3‐methoxyphenyl)methylidene]‐2‐ imino‐1,3‐thiazolidin‐4‐one] | 25 | 6.2
6 | COc1ccc(Nc2cc(C(=O)N3CCSCC3)nc3c(OC)cccc23)cc1Cl [N‐(3‐chloro‐4‐methoxyphenyl)‐8‐methoxy‐2‐ (thiomorpholine‐4‐carbonyl)quinolin‐4‐amine] | 19 | 27
7 | CCOc1ccc(Nc2cc(C(=O)N3CCSCC3)nc3c(OC)cccc23)cc1 [N‐(4‐ethoxyphenyl)‐8‐methoxy‐2‐(thiomorpholine‐4‐ carbonyl)quinolin‐4‐amine] | 24 | 34
8 | CNc1nc2c(S(=O)(=O)c3ccccc3)nnn2c2ccsc12 [UT-A1 inhibitor D2] | > 50 | 35

Continued, values first:

Row | IC50 (Urea transporter 2) [µM] | IC50 (Urea transporter 1) [µM] | Structure (SMILES)
9 | 3.8 | 15 | Cc1ccc(C)c(S(=O)(=O)c2nnn3c2nc(NC(C)C)c2sccc23)c1
10 | > 50 | 28 | CCc1ccc(S(=O)(=O)c2nnn3c2nc(NCCCOC)c2sccc23)cc1
11 | 3.7 | 4.8 | CC(=O)OCCOc1ccccc1/C=C1/SC(=N)NC1=O [2‐(2‐{[(5E)‐2‐imino‐4‐oxo‐1,3‐thiazolidin‐5‐ ylidene]methyl}phenoxy)ethyl acetate]
12 | > 50 | 42 | COc1cccc(Nc2nc(Nc3ccc(C)cc3)nc(Sc3ccc(C)cc3)n2)c1 [2‐N‐(3‐methoxyphenyl)‐4‐N‐(4‐methylphenyl)‐6‐[(4‐ methylphenyl)sulfanyl]‐1,3,5‐triazine‐2,4‐diamine]
13 | 3.8 | 20 | COc1cccc2c(Nc3cccc(SC)c3)cc(C(=O)N3CCCCC3)nc12 [8‐methoxy‐N‐[3‐(methylsulfanyl)phenyl]‐2‐ (piperidine‐1‐carbonyl)quinolin‐4‐amine]
14 | > 50 | 2.8 | O=S(=O)(c1ccc(Br)cc1)c1nnn2c1nc(N=S1C=CC=C1)c1sccc12 [10‐(4‐bromobenzenesulfonyl)‐N‐[(1Z)‐1λ⁴‐thiophen‐1‐ ylidene]‐5‐thia‐1,8,11,12‐ tetraazatricyclo[7.3.0.0 ,⁶]dodeca‐2(6),3,7,9,11‐ pentaen‐7‐amine]
15 | 7 | 43 | [H]/N=C1/NC(=O)/C(=C\c2cccc(OC)c2OC)S1 [(5E)‐5‐[(2,3‐dimethoxyphenyl)methylidene]‐2‐imino‐1,3‐thiazolidin‐4‐one]
16 | 24 | > 50 | COc1cccc2c(Nc3ccc(C)c(Cl)c3)cc(C(=O)N3CCCCC3)nc12 [N‐(3‐chloro‐4‐methylphenyl)‐8‐methoxy‐2‐ (piperidine‐1‐carbonyl)quinolin‐4‐amine]
17 | 25 | > 50 | COc1cccc2c(Nc3ccc(C)c(F)c3)cc(C(=O)N3CCCCC3)nc12 [N‐(3‐fluoro‐4‐methylphenyl)‐8‐methoxy‐2‐ (piperidine‐1‐carbonyl)quinolin‐4‐amine]
18 | 3.3 | 16 | CCOc1ccc(Nc2cc(C(=O)N3CCCCC3)nc3c(OC)cccc23)cc1 [N‐(4‐ethoxyphenyl)‐8‐methoxy‐2‐(piperidine‐1‐ carbonyl)quinolin‐4‐amine]
